Assay results as given in publication PMC11855827, “High-Throughput Screening of Five Compound Libraries for Anthelmintic Activity and Toxicity Leads to the Discovery of Two Flavonoid Compounds” (International Journal of Molecular Sciences, 2025).
Like-named read-outs stand apart in the source and are kept apart here.

Test system: C. elegans
Experiment: microbe, parasite or virus in culture
Details: Caenorhabditis elegans
[1] = 0 h, read-out: Percentage of motility inhibition 0 h, Table S2, C. elegans SS assay, 110 μM, 0 h, averages of 4 data points
[2] = 24 h, read-out: Percentage of motility inhibition 24 h, Table S2, C. elegans SS assay, 110 μM, 24 h, averages of 4 data points
[3] = 0 h, read-out: Percentage of motility inhibition 0 h
[4] = 24 h, read-out: Percentage of motility inhibition 24 h

| Structure (SMILES) | inhibition at 110 µM [1] [%] | inhibition at 110 µM [2] [%] | also measured |
| --- | --- | --- | --- |
| [H]/N=C(/N)NS(=O)(=O)c1ccc(N)cc1 [Sulfaguanidine] | 22 | 8 |  |
| COc1nccnc1NS(=O)(=O)c1ccc(N)cc1 [Sulfalene] | 2 | 15 |  |
| Cc1ccnc(NS(=O)(=O)c2ccc(N)cc2)n1 [Sulfamerazine] | 12 | 7 |  |
| COc1cnc(NS(=O)(=O)c2ccc(N)cc2)nc1 [Sulfameter] | 25 | 8 |  |
| Cc1cc(C)nc(NS(=O)(=O)c2ccc(N)cc2)n1 [Sulfamethazine] | 5 | 3 |  |
| Cc1nnc(NS(=O)(=O)c2ccc(N)cc2)s1 [Sulfamethizole] | 4 | 0 |  |
| Cc1cc(NS(=O)(=O)c2ccc(N)cc2)no1 [Sulfamethoxazole] | 30 | 11 |  |
| COc1ccc(NS(=O)(=O)c2ccc(N)cc2)nn1 [Sulfamethoxypyridazine] | 2 | 8 |  |
| COc1cc(NS(=O)(=O)c2ccc(N)cc2)ncn1 [Sulfamonomethoxine] | 6 | 1 |  |
| Nc1ccc(S(N)(=O)=O)cc1 [Sulfanilamide] | 21 | 7 |  |
| Nc1ccc(S(=O)(=O)Nc2ccnn2-c2ccccc2)cc1 [Sulfaphenazole] | 0 | 3 |  |
| Cc1noc(NS(=O)(=O)c2ccc(N)cc2)c1C [Sulfisoxazole] | 9 | 7 |  |
| CC(=O)NC[C@H]1CN(c2ccc(N3CCSCC3)c(F)c2)C(=O)O1 [Sutezolid] | 16 | 4 |  |
| COc1cc(O)c2c(=O)c3c(O[C@@H]4O[C@H](CO)[C@@H](O)[C@H](O)[C@H]4O)ccc(O)c3oc2c1 [Swertianolin] | 11 | 0 |  |
| COc1cc(C=O)cc(OC)c1O [Syringaldehyde] |  |  | inhibition at 110 µM [3]: 4%; inhibition at 110 µM [4]: 3% |
| CC[C@]12C=CCN3CC[C@]4(C(=C(C(=O)OC)C1)Nc1ccccc14)[C@@H]32 [Tabersonine] | 0 | 1 |  |
| CCN1C[C@]2(COC)CC[C@H](OC)[C@]34C1[C@H](C[C@H]23)[C@@]1(O)C[C@H](OC)[C@H]2C[C@@H]4[C@@H]1[C@H]2O [Talatisamine] | 6 | 0 |  |
| COc1ccc(-c2oc3cc(O)cc(O)c3c(=O)c2O)cc1O [Tamarixetin] | 20 | 10 |  |
| COc1ccc(-c2cc(=O)c3c(OC)c(OC)c(OC)c(OC)c3o2)cc1 [Tangeretin] | 14 | 8 |  |
| Cc1coc2c1C(=O)C(=O)c1c-2ccc2c(C)cccc12 [Tanshinone I] | 0 | 3 |  |

| Structure (SMILES) | inhibition at 110 µM [1] [%] | inhibition at 110 µM [2] [%] | also measured |
| --- | --- | --- | --- |
| NCCS(=O)(=O)O [Taurine] | 8 | 0 |  |
| C[C@H](CCC(=O)NCCS(=O)(=O)O)[C@H]1CC[C@H]2[C@@H]3CC[C@@H]4C[C@H](O)CC[C@]4(C)[C@H]3C[C@H](O)[C@]12C [Taurodeoxycholic acid] | 0 | 7 |  |
| O=C1c2c(O)cc(O)cc2OC(c2ccc(O)c(O)c2)C1O (centres unmarked) [Taxifolin] | 10 | 14 |  |
| C[C@]1(Cn2ccnn2)[C@H](C(=O)O)N2C(=O)C[C@H]2S1(=O)=O [Tazobactam] | 16 | 21 |  |
| C[C@@H](O)[C@H]1C(=O)N2C(C(=O)O)=C(SC3CN(C4=NCCS4)C3)[C@H](C)[C@H]12 [Tebipenem] | 0 | 7 |  |
| CC(C)(C)C(O)(CCc1ccc(Cl)cc1)Cn1cncn1 (centres unmarked) [Tebuconazole] | 32 | 1 |  |
| COc1c(O[C@@H]2O[C@H](CO)[C@@H](O)[C@H](O)[C@H]2O)cc2occ(-c3ccc(O)cc3)c(=O)c2c1O [Tectoridin] | 1 | 11 |  |
| COc1c(O)cc2occ(-c3ccc(O)cc3)c(=O)c2c1O [Tectorigenin] |  |  | inhibition at 110 µM [3]: 0%; inhibition at 110 µM [4]: 0% |
| Cn1nnc(-c2ccc(-c3ccc(N4C[C@H](CO)OC4=O)cc3F)cn2)n1 [Tedizolid] | 20 | 12 |  |
| Fc1ccccc1-c1nc2ccn(Cc3ccc(-c4ccc(C(F)(F)F)cc4C(F)(F)F)nn3)cc-2n1 [Tegobuvir] | 68 | 34 |  |
| CCC[C@H](NC(=O)[C@@H]1[C@H]2CCC[C@H]2CN1C(=O)[C@@H](NC(=O)[C@@H](NC(=O)c1cnccn1)C1CCCCC1)C(C)(C)C)C(=O)C(=O)NC1CC1 [Telaprevir] | 7 | 0 |  |
| Cc1cn([C@@H]2C[C@@H](O)[C@H](CO)O2)c(=O)[nH]c1=O [Telbivudine] | 39 | 1 |  |
| C[C@H](Cn1cnc2c(N)ncnc21)OCP(=O)(O)O [Tenofovir] | 22 | 16 |  |
| COc1ccc2c(c1)CC=C(CO)c1cc3c(cc1-2)OCO3 [Tenuifolin] | 0 | 1 |  |
| CN(C/C=C/C#CC(C)(C)C)Cc1cccc2ccccc12 [Terbinafine] | 31 | 0 |  |
| CC(C)(C)NCC(O)c1cc(O)cc(O)c1 (centres unmarked) [Terbutaline] | 9 | 2 |  |
| CC(C)N1CCN(c2ccc(OCC3COC(Cn4cncn4)(c4ccc(Cl)cc4Cl)O3)cc2)CC1 (centres unmarked) [Terconazole] | 26 | 3 |  |
| CC1(C)CC[C@]2(C(=O)O)CC[C@]3(C)C(=CC[C@@H]4[C@@]5(C)C[C@@H](O)[C@H](O)[C@@](C)(CO)[C@@H]5[C@H](O)C[C@]43C)[C@@H]2C1 [Terminolic acid] | 26 | 10 |  |
| CN(C)[C@@H]1C(O)=C(C(N)=O)C(=O)[C@@]2(O)C(O)=C3C(=O)c4c(O)cccc4[C@@](C)(O)[C@H]3C[C@@H]12 [Tetracycline] | 39 | 46 |  |
| COc1ccc2c(c1OC)CN1CCc3cc4c(cc3C1C2)OCO4 (centres unmarked) [Tetrahydroberberine] | 2 | 0 |  |

| Structure (SMILES) | inhibition at 110 µM [1] [%] | inhibition at 110 µM [2] [%] | also measured |
| --- | --- | --- | --- |
| C[C@H](O)[C@H](O)[C@H]1CNc2nc(N)[nH]c(=O)c2N1 [Tetrahydrobiopterin] | 0 | 3 |  |
| O=C(CCCCc1ccc2c(c1)OCO2)N1CCCCC1 [Tetrahydropiperine] | 0 | 0 |  |
| c1ccc(C2CN3CCSC3=N2)cc1 (centres unmarked) [Tetramisole, reference compound] |  |  | inhibition at 110 µM (0 h, read-out: Inhibition (%) 110 μM (0 h), C. elegans L4 motility, 110 μM, 0 h, mean ± SD of four experiments): 78 ± 2%; inhibition at 110 µM (24 h, read-out: Inhibition (%) 110 μM (24 h), C. elegans L4 motility, 110 μM, 24 h, mean ± SD of four experiments): 82 ± 3% |
| O=c1c(O)cc([C@H]2Oc3cc(O)cc(O)c3C[C@H]2O)cc2c([C@H]3Oc4cc(O)cc(O)c4C[C@H]3O)cc(O)c(O)c12 [Theaflavin] | 11 | 5 |  |
| Cc1ncc(C[n+]2csc(CCO)c2C)c(N)n1 [Thiamine monochloride] | 13 | 6 |  |
| CS(=O)(=O)c1ccc([C@@H](O)[C@@H](CO)NC(=O)C(Cl)Cl)cc1 [Thiamphenicol] | 24 | 1 |  |
| Cc1nc(C(F)(F)F)c(C(=O)Nc2c(Br)cc(OC(F)(F)F)cc2Br)s1 [Thifluzamide] | 69 | 29 |  |
| C=C(NC(=O)C(=C)NC(=O)c1csc(C2=N[C@@H]3c4csc(n4)[C@H]4NC(=O)c5csc(n5)[C@H]([C@](C)(O)[C@@H](C)O)NC(=O)[C@H]5CSC(=N5)/C(=C/C)NC(=O)[C@H]([C@@H](C)O)NC(=O)c5csc(n5)[C@]3(CC2)NC(=O)[C@H](C)NC(=O)C(=C)NC(=O)[C@H](C)NC(=O)[C@H]([C@@H](C)CC)N[C@@H]2C=Cc3c([C@H](C)O)cc(nc3[C@H]2O)C(=O)O[C@@H]4C)n1)C(N)=O [Thiostrepton] | 11 | 31 |  |
| Cc1ccc(C(C)C)c(O)c1 [Thymol] | 54 | 28 |  |
| CN(C)c1cc(NC(=O)CNC(C)(C)C)c(O)c2c1C[C@H]1C[C@H]3[C@H](N(C)C)C(O)=C(C(N)=O)C(=O)[C@@]3(O)C(O)=C1C2=O [Tigecycline] | 31 | 19 |  |
| O=C(/C=C/c1ccc(O)cc1)OC[C@H]1O[C@@H](Oc2c(-c3ccc(O)cc3)oc3cc(O)cc(O)c3c2=O)[C@H](O)[C@@H](O)[C@@H]1O [Tiliroside] |  |  | inhibition at 110 µM [3]: 2%; inhibition at 110 µM [4]: 9% |
| CCS(=O)(=O)CCn1c([N+](=O)[O-])cnc1C [Tinidazole] | 25 | 8 |  |
| Clc1ccc(C(Cn2ccnc2)OCc2ccsc2Cl)c(Cl)c1 (centres unmarked) [Tioconazole] | 30 | 43 |  |
| O=C(Nc1ncc([N+](=O)[O-])s1)c1ccccc1O [Tizoxanide] | 40 | 53 |  |
| NC[C@H]1O[C@H](O[C@H]2[C@H](O)[C@@H](O[C@H]3O[C@H](CO)[C@@H](O)[C@H](N)[C@H]3O)[C@H](N)C[C@@H]2N)[C@H](N)C[C@@H]1O [Tobramycin] | 9 | 0 |  |
| COP(=S)(OC)Oc1c(Cl)cc(C)cc1Cl [Tolclofos‐methyl] | 35 | 20 |  |
| Cc1cccc(N(C)C(=S)Oc2ccc3ccccc3c2)c1 [Tolnaftate] | 25 | 26 |  |
| Cc1cc(-n2c(=O)[nH]c(=O)n(C)c2=O)ccc1Oc1ccc(SC(F)(F)F)cc1 [Toltrazuril] | 31 | 2 |  |
